Data taken from patent US8598314B2 (priority 2007, dated 2013).
Like-named read-outs stand apart in the source and are kept apart here.

Columns and labels:
ACE from rabbit lung = biological target: T1, ACE from rabbit lung (Oryctolagus cuniculus, UniProt P12822); assay: ACE inhibition assay; assay type: biochemical
T1 construct: ACE from rabbit lung; purchased Sigma Chemical Co; host or cells: rabbit lung tissue
T1 sequence (P12822 34-1310): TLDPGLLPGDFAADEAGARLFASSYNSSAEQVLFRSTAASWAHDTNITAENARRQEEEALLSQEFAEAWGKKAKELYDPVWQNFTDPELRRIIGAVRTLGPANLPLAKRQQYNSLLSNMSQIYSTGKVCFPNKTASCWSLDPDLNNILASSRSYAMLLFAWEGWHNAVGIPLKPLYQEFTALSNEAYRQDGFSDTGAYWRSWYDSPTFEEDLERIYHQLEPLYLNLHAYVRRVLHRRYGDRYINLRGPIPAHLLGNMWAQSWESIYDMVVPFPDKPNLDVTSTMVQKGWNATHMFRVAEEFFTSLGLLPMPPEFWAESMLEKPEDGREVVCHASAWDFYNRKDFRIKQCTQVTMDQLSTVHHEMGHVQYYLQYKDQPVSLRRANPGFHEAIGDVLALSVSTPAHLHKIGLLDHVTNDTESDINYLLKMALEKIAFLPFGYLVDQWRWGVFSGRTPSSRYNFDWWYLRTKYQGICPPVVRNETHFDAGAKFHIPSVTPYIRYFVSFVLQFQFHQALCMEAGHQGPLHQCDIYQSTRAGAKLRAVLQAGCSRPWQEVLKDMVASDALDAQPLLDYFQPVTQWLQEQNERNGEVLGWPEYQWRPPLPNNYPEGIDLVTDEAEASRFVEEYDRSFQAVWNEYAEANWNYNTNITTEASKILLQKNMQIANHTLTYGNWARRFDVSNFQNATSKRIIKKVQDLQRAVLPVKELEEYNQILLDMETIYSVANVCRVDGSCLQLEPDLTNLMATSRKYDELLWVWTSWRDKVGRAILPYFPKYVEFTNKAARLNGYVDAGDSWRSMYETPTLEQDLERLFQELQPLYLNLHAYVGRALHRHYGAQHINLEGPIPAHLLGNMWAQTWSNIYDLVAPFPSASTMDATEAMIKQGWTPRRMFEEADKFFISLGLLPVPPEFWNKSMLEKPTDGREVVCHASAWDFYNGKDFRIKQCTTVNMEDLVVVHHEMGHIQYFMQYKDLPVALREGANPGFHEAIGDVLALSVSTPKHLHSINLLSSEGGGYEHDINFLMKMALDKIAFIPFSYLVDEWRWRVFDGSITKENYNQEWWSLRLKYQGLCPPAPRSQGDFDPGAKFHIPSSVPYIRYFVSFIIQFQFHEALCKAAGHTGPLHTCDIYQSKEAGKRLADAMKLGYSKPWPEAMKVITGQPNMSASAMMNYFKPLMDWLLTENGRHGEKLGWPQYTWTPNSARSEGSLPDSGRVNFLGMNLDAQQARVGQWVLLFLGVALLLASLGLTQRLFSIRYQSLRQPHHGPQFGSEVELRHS
Procedure: Peptide-ACE peptidase inhibitor conjugate compounds were assessed in an ACE inhibition assay using purified ACE enzyme and chromogenic substrates. An ACE stock solution was prepared by dissolving 0.1 unit of enzyme (ACE from rabbit lung, Sigma Chemical Co., St. Louis, Mo.) in 0.640 mL of HEPES buffer (0.1 M, pH=8). A 2 mM stock solution of substrate (N-benzyloxycarbonyl-Phe-His-Leu-OH) dissolved in methanol. The ACE inhibitor compounds were dissolved in phosphate buffer (0.1 M, pH=8) at concentrations of 0.0, 1, 10, 20, 60 and 100 μM. For the inhibition assay, six 2 mL microcentrifuge tubes were prepared containing 1.45 mL of phosphate buffer pH=8, 0.05 mL of 10% NaCl and 0.015 mL of substrate solution. To each microcentrifuge tube was added 0.015 mL of one of the ACE inhibitor compound's stock solutions. The solutions were heated at 37° C. for about 5 minutes. The reaction was started by the addition of 5 μL of the ACE stock solution to each tube mixture (30 seconds in between). The reaction mixtures were incubated at 37° C. After 5 min, 10 min, 30 min and 60 min., aliquots of 100 μL were taken from each tube (each sample was taken in intervals of 30 seconds). Tubes containing the 100 μL sample were floated in a boiling water bath for 5 min. and then cooled. The reaction samples were then treated with 20 μL of 2M NaOH and 20 μL of 0.1% phthaldialdehyde solution. The tubes were shaken for 4 minutes and 10 μL of 6 M HCl were added. […] Initial rates were determined from linear portions of product release curves. Starting substrate concentration in all assays was 20 μM. Apparent binding constants (Kd^app or Ki^app) of inhibitors to ACE were determined by fitting inhibition curves (initial rate vs. inhibitor concentration) to equation:
[formula] where v0 is reaction rate in the absence of inhibitor and [I]-inhibitor concentration. Fits were done by least-squares method using KaleidaGraph 3.6 (Synergy Software, Reading Pa.).

[1] = biological target: T2, endogenously expressed GLP-1 receptor, thyroid c-cell carcinoma line 6-23 (Rattus norvegicus, UniProt P32301); assay: GLP-1 cyclase whole cell cAMP assay; assay type: cell-based
T2 construct: the endogenously expressed GLP-1 receptor; endogenous in cells; host or cells: thyroid c-cell carcinoma line 6-23
T2 sequence (P32301 22-463): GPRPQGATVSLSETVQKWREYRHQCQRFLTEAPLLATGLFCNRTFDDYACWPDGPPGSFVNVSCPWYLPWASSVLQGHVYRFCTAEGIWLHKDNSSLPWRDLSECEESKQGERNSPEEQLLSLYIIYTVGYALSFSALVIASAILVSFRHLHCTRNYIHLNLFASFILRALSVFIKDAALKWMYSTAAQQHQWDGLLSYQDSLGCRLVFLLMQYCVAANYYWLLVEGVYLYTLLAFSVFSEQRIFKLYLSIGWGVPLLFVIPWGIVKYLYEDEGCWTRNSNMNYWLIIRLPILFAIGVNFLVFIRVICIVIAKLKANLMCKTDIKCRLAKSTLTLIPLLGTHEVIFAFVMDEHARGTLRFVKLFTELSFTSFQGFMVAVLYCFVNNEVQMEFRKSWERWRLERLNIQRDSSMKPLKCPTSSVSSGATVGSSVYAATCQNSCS
Procedure: Cells from the thyroid c-cell carcinoma line 6-23 were grown to confluence and harvested by treatment with Versene ([…]). […] Accumulation of cAMP was measured following 30′ conjugate or control agent treatment using an HTRF® cell-based cAMP assay kit (Cisbio-US, Inc., Bedford, Mass.) in 384-well format. The compounds were tested at final concentrations from 1 μM to 10 pM. The cell-conjugate mixture was incubated for 30′ at room temperature, at which time the reaction was terminated by the addition of kit-provided α-cAMP Cryptate solution. Plates were then sealed and stored at room temperature overnight to allow components to come to full equilibrium. cAMP content was then measured by time resolved fluorescence.

[2] = substrate N-benzyloxycarbonyl-Phe-His-Leu-OH 20 μM, read-out: ACE inhibition IC50

Row | SMILES | IC50 (ACE from rabbit lung) | EC50 [1] | IC50 (ACE from rabbit lung; [2])
1 | CC[C@H](C)[C@H](NC(=O)[C@H](Cc1ccccc1)NC(=O)[C@H](CC(C)C)NC(=O)[C@H](CCCNC(=N)N)NC(=O)[C@@H](NC(=O)[C@H](C)NC(=O)[C@H](CCC(=O)O)NC(=O)[C@H](CCC(=O)O)NC(=O)[C@H](CCC(=O)O)NC(=O)[C@H](CC(C)C)NC(=O)[C@H](CCC(N)=O)NC(=O)[C@H](CCCCN)NC(=O)[C@H](CO)NC(=O)[C@H](CC(C)C)NC(=O)[C@H](CC(=O)O)NC(=O)[C@H](CO)NC(=O)[C@@H](NC(=O)[C@H](Cc1ccccc1)NC(=O)[C@@H](NC(=O)CNC(=O)[C@H](CCC(=O)O)NC(=O)CNC(=O)[C@@H](N)Cc1c[nH]cn1)[C@@H](C)O)[C@@H](C)O)C(C)C)C(=O)N[C@@H](CCC(=O)O)C(=O)N[C@@H](Cc1c[nH]c2ccccc12)C(=O)N[C@@H](CC(C)C)C(=O)N[C@@H](CCCCN)C(=O)N[C@@H](CCC(N)=O)C(=O)NCC(=O)NCC(=O)N1CCC[C@H]1C(=O)N[C@@H](CO)C(=O)N[C@@H](CCCCN)C(=O)N[C@@H](CCC(=O)O)C(=O)N[C@H](C(=O)N[C@H](C(=O)N[C@@H](CO)C(=O)NCCCC(=O)NCCC(=O)NCCCC[C@H](NC(CCc1ccccc1)C(=O)O)C(=O)N1CCC[C@H]1C(=O)O)[C@@H](C)CC)[C@@H](C)CC (some centres unmarked) [Compound 5716] | 140 nM | 0.14 nM | 
2 | CC[C@H](C)[C@H](NC(=O)[C@H](Cc1ccccc1)NC(=O)[C@H](CC(C)C)NC(=O)[C@H](CCCNC(=N)N)NC(=O)[C@@H](NC(=O)[C@H](C)NC(=O)[C@H](CCC(=O)O)NC(=O)[C@H](CCC(=O)O)NC(=O)[C@H](CCC(=O)O)NC(=O)[C@H](CC(C)C)NC(=O)[C@H](CCC(N)=O)NC(=O)[C@H](CCCCN)NC(=O)[C@H](CO)NC(=O)[C@H](CC(C)C)NC(=O)[C@H](CC(=O)O)NC(=O)[C@H](CO)NC(=O)[C@@H](NC(=O)[C@H](Cc1ccccc1)NC(=O)[C@@H](NC(=O)CNC(=O)[C@H](CCC(=O)O)NC(=O)CNC(=O)[C@@H](N)Cc1c[nH]cn1)[C@@H](C)O)[C@@H](C)O)C(C)C)C(=O)N[C@@H](CCC(=O)O)C(=O)N[C@@H](Cc1c[nH]c2ccccc12)C(=O)N[C@@H](CC(C)C)C(=O)N[C@@H](CCCCN)C(=O)N[C@@H](CC(N)=O)C(=O)NCCOCCOCCOCC(=O)NCCOCCOCC(=O)NCCCC[C@H](NC(CCc1ccccc1)C(=O)O)C(=O)N1CCC[C@H]1C(=O)O (some centres unmarked) [Compound 5606] |  | 0.23 nM | 700 nM
3 | CC[C@H](C)[C@H](NC(=O)[C@H](Cc1ccccc1)NC(=O)[C@H](CC(C)C)NC(=O)[C@H](CCCNC(=N)N)NC(=O)[C@@H](NC(=O)[C@H](C)NC(=O)[C@H](CCC(=O)O)NC(=O)[C@H](CCC(=O)O)NC(=O)[C@H](CCC(=O)O)NC(=O)[C@H](CC(C)C)NC(=O)[C@H](CCC(N)=O)NC(=O)[C@H](CCCCN)NC(=O)[C@H](CO)NC(=O)[C@H](CC(C)C)NC(=O)[C@H](CC(=O)O)NC(=O)[C@H](CO)NC(=O)[C@@H](NC(=O)[C@H](Cc1ccccc1)NC(=O)[C@@H](NC(=O)CNC(=O)[C@H](CCC(=O)O)NC(=O)CNC(=O)[C@@H](N)Cc1c[nH]cn1)[C@@H](C)O)[C@@H](C)O)C(C)C)C(=O)N[C@@H](CCC(=O)O)C(=O)N[C@@H](Cc1c[nH]c2ccccc12)C(=O)N[C@@H](CC(C)C)C(=O)N[C@@H](CCCCN)C(=O)N[C@@H](CC(N)=O)C(=O)NCCOCCOCCOCC(=O)NCCCC(=O)NCCCC[C@H](NC(CCc1ccccc1)C(=O)O)C(=O)N1CCC[C@H]1C(=O)O (some centres unmarked) [Compound 5609] |  | 0.65 nM | 1000 nM
4 | CC[C@H](C)[C@H](NC(=O)[C@H](Cc1ccccc1)NC(=O)[C@H](CC(C)C)NC(=O)[C@H](CCCNC(=N)N)NC(=O)[C@@H](NC(=O)[C@H](C)NC(=O)[C@H](CCC(=O)O)NC(=O)[C@H](CCC(=O)O)NC(=O)[C@H](CCC(=O)O)NC(=O)[C@H](CC(C)C)NC(=O)[C@H](CCC(N)=O)NC(=O)[C@H](CCCCN)NC(=O)[C@H](CO)NC(=O)[C@H](CC(C)C)NC(=O)[C@H](CC(=O)O)NC(=O)[C@H](CO)NC(=O)[C@@H](NC(=O)[C@H](Cc1ccccc1)NC(=O)[C@@H](NC(=O)CNC(=O)[C@H](CCC(=O)O)NC(=O)CNC(=O)[C@@H](N)Cc1c[nH]cn1)[C@@H](C)O)[C@@H](C)O)C(C)C)C(=O)N[C@@H](CCC(=O)O)C(=O)N[C@@H](Cc1c[nH]c2ccccc12)C(=O)N[C@@H](CC(C)C)C(=O)N[C@@H](CCCCN)C(=O)N[C@@H](CC(N)=O)C(=O)NCCCC(=O)NCCOCCOCC(=O)NCCCC(=O)NCCCC[C@H](NC(CCc1ccccc1)C(=O)O)C(=O)N1CCC[C@H]1C(=O)O (some centres unmarked) [Compound 5605] |  | 1.24 nM | 300 nM
